Assays:
[1] = target: BRAF V600E (Homo sapiens (Human), UniProt P15056, V600E); assay: Inhibitory activity against kinase BRAF V600E, Z'-LYTE method (Invitrogen); assay type: biochemical; conditions: for inhibition at 1 µM: 1 μM compound, read-out: Inhibition (% inhibition at 1 μM) against BRAF V600E
Method: (§1) Inhibitory activities Inhibitory activities of compounds against BRAF, and BRAF V600E were measured by Invitrogen using Z′-LYTE® Method as briefly described in the following. 4× Test compounds are dissolved in 1% DMSO. […] ATP solutions are diluted to a 4×ATP working concentration in Kinase Buffer (50 mM HEPES pH 7.5, 0.01% BRIJ-35, 10 mM MgCl2, 1 mM EGTA). Reaction started by 30-second shaking of mixture consisting of 2.5 μL 4× test compound, […] and 2.5 μL 4×ATP Solution on Bar-coded Corning, low volume NBS, black 384-well plate (Corning Cat. #3676). Then the mixture was incubated for 60-minute at room temperature for the kinase reaction, followed by addition of 5 μL of a 1:1024 dilution of development reagent A and 30-second plate shake. The mixture was then incubated for another 60-minute at room temperature for development reaction. Fluorescence was read by plate reader. IC50 was calculated by plotting the concentration of compound vs the percentage of inhibition in treated wells using GraphPad Prism 5.
(§2) Table 2 and 3 show % inhibition at 1 μM of several compounds of the invention against BRAF and BRAF V600E, respectively, using Z′-LYTE® method.
The scale utilized in Table 4 is as follows: +++ less than 100 nM; and ++ greater than 100 nM.

[2] = target: KDR (VEGFR2) (Homo sapiens (Human), UniProt P35968); assay: Inhibitory activity against kinase KDR, Z'-LYTE method (Invitrogen); assay type: biochemical; conditions: for inhibition at 1 µM: 1 μM compound, read-out: Inhibition (% inhibition at 1 μM) against KDR
Method: Inhibitory activities of compounds against KDR (VEGFR2) were also measured by Invitrogen using Z′-LYTE® Method as described above with the following modification. The 2× KDR (VEGFR2)/Tyr 01 mixture is prepared in 50 mM HEPES pH 7.5, 0.01% BRIJ-35, 10 mM MgCl2, 1 mM EGTA. The final 10 μL Kinase Reaction consists of 0.5-11.7 ng KDR (VEGFR2) and 2 μM Tyr 01 in 50 mM HEPES pH 7.5, 0.01% BRIJ-35, 10 mM MgCl2, 1 mM EGTA. After the 1 hour Kinase Reaction incubation, 5 μL of a 1:256 dilution of Development Reagent B is added.
The scale utilized in Table 5 is as follows: +++ less than 100 nM; and ++ greater than 100 nM

[3] = target: BRAF (Homo sapiens (Human), UniProt P15056); assay: Inhibitory activity against kinase BRAF, Z'-LYTE method (Invitrogen); assay type: biochemical; conditions: 1 μM compound
Method: as §1, §2

[4] = test system: A549 cells; assay: Inhibition of cancer cell growth, MTT or MTS assay, A549; assay type: cell-based; conditions: Homo sapiens, 72 h incubation
Method: (§3) Inhibition of cell growth by compounds was measured using MTT or MTS assay. Tumor cell lines were purchased from ATCC (American Type Culture Collection, Manassas, Va.). All cell lines were maintained in RPMI 1640 (Hyclone) supplemented with 10% fetal bovine serum (FBS, Hyclone), glutamine (2 mM, Hyclone), and antibiotics (penicillin 100 U/mL and streptomycin 50 μg/mL) at 37° C. in a humidified atmosphere of 5% CO2 in air. Taxol (as a positive control, Sigma) and compounds were dissolved in DMSO (Sigma), and the final concentration of DMSO in the medium was 1%. Tumor cells were plated in 96-well plates at densities of about 2000 (A375) or 4000 (A549 and Colo205) cells/well of a 96-well plate and allowed to adhere/grow for 24 h. They were then treated with various concentrations of drug and incubated for 72 h. For MTT method, medium was then removed by inverting and tapping the plates. 100 μL of MTT (0.5 mg/ml) was added to each well followed by an incubated at 37° C. for 4 h. MTT was then removed and 200 μL of DMSO was added to each well, and the ODs at 570 nm were measured after a 5 second shaking cycle in a 96-well spectrophotometer. For MTS method, 20 μL MTS (CellTiter 96 Aqueous One Solution, Promega) was added to each well followed by an incubated at 37° C. for 2-4 h, solutions were then directly put in a 96-well spectrophotometer, and the ODs at 490 nm were measured.
(§4) All concentrations of compounds were tested in triplicate and controls were averaged over 4 wells. IC50 was calculated by plotting the concentration of compound vs the percentage of inhibition in treated wells using GraphPad Prism 5. […] The scale utilized in Tables […] is as follows: +++ less than 1000 nM; ++ between 1000 nM and 5000 nM; and + greater than 5000 nM. The scale utilized in Table 8 is as follows: +++ less than 2000 nM; ++ between 2000 nM and 5000 nM; and + greater than 5000 nM.

[5] = test system: A375 cells; assay: Inhibition of cancer cell growth, MTT or MTS assay, A375; assay type: cell-based; conditions: Homo sapiens, A-375; 72 h incubation
Method: as §3, §4

Sequence of KDR (VEGFR2) (P35968 20-1356): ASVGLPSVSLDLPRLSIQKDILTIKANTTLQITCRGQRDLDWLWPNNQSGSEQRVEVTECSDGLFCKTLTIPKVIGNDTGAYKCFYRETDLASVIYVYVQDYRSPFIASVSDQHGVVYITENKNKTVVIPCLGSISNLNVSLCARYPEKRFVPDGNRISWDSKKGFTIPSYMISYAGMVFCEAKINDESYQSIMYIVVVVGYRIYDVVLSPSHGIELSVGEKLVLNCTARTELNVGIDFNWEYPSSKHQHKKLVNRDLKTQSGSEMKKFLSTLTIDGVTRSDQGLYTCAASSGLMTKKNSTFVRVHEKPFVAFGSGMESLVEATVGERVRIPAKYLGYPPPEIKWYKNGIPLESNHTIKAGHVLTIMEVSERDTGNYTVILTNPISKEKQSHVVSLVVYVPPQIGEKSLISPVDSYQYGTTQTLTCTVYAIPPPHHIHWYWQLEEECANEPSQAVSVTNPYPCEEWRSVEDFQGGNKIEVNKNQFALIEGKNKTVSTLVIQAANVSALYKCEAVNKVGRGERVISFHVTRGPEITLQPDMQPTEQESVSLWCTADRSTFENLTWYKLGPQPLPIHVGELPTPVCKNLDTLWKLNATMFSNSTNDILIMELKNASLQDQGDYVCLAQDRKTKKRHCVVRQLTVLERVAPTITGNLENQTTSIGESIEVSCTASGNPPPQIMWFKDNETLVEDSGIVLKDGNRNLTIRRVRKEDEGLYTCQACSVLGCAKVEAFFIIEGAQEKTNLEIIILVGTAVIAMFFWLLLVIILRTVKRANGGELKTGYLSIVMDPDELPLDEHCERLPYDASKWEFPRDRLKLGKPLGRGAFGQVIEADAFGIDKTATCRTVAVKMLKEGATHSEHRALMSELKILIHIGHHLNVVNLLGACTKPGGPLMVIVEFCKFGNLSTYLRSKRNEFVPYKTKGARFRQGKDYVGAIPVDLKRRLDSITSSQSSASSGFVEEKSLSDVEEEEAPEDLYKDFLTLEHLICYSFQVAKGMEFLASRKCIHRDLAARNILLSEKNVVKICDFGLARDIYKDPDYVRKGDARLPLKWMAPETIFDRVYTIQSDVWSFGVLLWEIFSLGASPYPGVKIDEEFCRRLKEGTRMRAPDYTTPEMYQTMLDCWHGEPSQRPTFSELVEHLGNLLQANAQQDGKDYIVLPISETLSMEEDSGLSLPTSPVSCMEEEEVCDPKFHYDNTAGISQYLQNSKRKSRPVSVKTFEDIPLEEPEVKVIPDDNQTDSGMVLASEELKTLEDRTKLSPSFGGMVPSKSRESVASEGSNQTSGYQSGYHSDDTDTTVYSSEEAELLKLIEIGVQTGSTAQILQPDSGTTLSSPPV
Sequence of BRAF V600E (P15056 whole entry V600E): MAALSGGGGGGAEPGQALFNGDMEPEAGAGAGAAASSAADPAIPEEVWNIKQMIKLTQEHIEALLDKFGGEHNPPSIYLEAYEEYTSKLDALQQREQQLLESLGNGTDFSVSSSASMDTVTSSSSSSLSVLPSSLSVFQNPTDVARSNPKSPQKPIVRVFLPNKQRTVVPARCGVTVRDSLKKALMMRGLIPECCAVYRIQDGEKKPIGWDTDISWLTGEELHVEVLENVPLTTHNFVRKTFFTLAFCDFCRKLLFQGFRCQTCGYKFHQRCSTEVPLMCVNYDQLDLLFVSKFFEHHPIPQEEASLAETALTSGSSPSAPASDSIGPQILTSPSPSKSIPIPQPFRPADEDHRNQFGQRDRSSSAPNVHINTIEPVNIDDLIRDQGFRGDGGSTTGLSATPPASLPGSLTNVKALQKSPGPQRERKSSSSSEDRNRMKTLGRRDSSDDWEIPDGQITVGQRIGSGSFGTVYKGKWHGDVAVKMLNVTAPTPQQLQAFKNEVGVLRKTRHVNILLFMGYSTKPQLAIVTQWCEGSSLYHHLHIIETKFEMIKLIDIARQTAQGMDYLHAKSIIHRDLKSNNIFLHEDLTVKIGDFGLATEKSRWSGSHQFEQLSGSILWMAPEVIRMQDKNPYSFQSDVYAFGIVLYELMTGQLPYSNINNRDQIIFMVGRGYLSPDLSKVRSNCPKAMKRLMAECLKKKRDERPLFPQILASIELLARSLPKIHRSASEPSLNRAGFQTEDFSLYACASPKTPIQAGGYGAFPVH
Sequence of BRAF (P15056 whole entry): as the sequence (P15056 whole entry V600E) above, with E600V counted along it

Row | inhibition at 1 µM [1] | inhibition at 1 µM [2] | inhibition at 1 µM [3] | IC50 [4] | IC50 [5] | IC50 [1] | IC50 [2] | SMILES
1 | 70 to 89% | < 70% |  | > 5000 nM | 1000 to 5000 nM |  |  | O=C(Nc1ccc(F)c(C(F)(F)F)c1)Nc1ccc(Oc2ccc3nccnc3c2)cc1F [Compound C098, 1-(4-fluoro-3-(trifluoromethyl)phenyl)-3-(2-fluoro-4-(quinoxalin-6-yloxy)phenyl)urea]
2 | < 70% | 70 to 89% |  | 2000 to 5000 nM | > 5000 nM |  |  | O=C(Nc1ccc(Cl)c(C(F)(F)F)c1)Nc1ccc(Oc2ccc3nccnc3c2)cc1F [Compound C095, 1-(4-chloro-3-(trifluoromethyl)phenyl)-3-(2-fluoro-4-(quinoxalin-6-yloxy)phenyl)urea]
3 | < 70% | 70 to 89% |  | < 2000 nM | < 1000 nM |  |  | O=C(Nc1ccc(F)c(Oc2ccc3nccnc3c2)c1)Nc1ccc(Cl)c(C(F)(F)F)c1 [Compound C011, 1-(4-chloro-3-(trifluoromethyl)phenyl)-3-(4-fluoro-3-(quinoxalin-6-yloxy)phenyl)urea]
4 | < 70% | > 89% |  | < 2000 nM | < 1000 nM | > 100 nM | > 100 nM | O=C(Nc1ccc(F)c(Oc2ccc3ncc(N4CCOCC4)nc3c2)c1)Nc1ccc(Cl)c(C(F)(F)F)c1 [Compound C009, 1-(4-chloro-3-(trifluoromethyl)phenyl)-3-(4-fluoro-3-((3-morpholinoquinoxalin-6-yl)oxy)phenyl)urea]
5 | 70 to 89% | 70 to 89% |  | < 2000 nM | < 1000 nM |  |  | O=C(Nc1cc(F)cc(Oc2ccc3nccnc3c2)c1)Nc1ccc(Cl)c(C(F)(F)F)c1 [Compound C022, 1-(4-chloro-3-(trifluoromethyl)phenyl)-3-(3-fluoro-5-(quinoxalin-6-yloxy)phenyl)urea]
6 | 70 to 89% | 70 to 89% |  | 2000 to 5000 nM | > 5000 nM |  |  | O=C(Nc1ccc(F)c(Oc2ccc3nccnc3c2)c1)c1ccc(Cl)c(C(F)(F)F)c1 [Compound C010, 4-chloro-N-(4-fluoro-3-(quinoxalin-6-yloxy)phenyl)-3-(trifluoromethyl)benzamide]
7 | > 89% | 70 to 89% |  | < 2000 nM | 1000 to 5000 nM |  |  | O=C(Nc1cccc(C(F)(F)F)c1)Nc1ccc(F)c(Oc2ccc3nccnc3c2)c1 [Compound C024, 1-(4-fluoro-3-(quinoxalin-6-yloxy)phenyl)-3-(3-(trifluoromethyl)phenyl)urea]
8 | > 89% | 70 to 89% |  | > 5000 nM | 1000 to 5000 nM |  |  | O=C(Nc1ccc(F)c(Oc2ccc3nccnc3c2)c1)c1cccc(C(F)(F)F)c1 [Compound C018, N-(4-fluoro-3-(quinoxalin-6-yloxy)phenyl)-3-(trifluoromethyl)benzamide]
9 | 70 to 89% | 70 to 89% |  | > 5000 nM | 1000 to 5000 nM |  |  | O=C(Nc1ccc(Oc2ccc3nccnc3c2)cc1)Nc1ccc(Cl)c(C(F)(F)F)c1 [Compound C076, 1-(4-chloro-3-(trifluoromethyl)phenyl)-3-(4-(quinoxalin-6-yloxy)phenyl)urea]

More lines, now with the values behind:

Row | SMILES | inhibition at 1 µM [1] | inhibition at 1 µM [2] | inhibition at 1 µM [3] | IC50 [4] | IC50 [5] | IC50 [1] | IC50 [2]
10 | O=C(Nc1ccc(F)cc1)Nc1cccc(Oc2ccc3ncc(N4CCNCC4)nc3c2)c1 [Compound C038, 1-(4-fluorophenyl)-3-(3-((3-(piperazin-1-yl)quinoxalin-6-yl)oxy)phenyl)urea] | > 89% | > 89% | > 89% | > 5000 nM |  |  | 
11 | O=C(Nc1ccc(F)cc1)Nc1ccc(F)c(Oc2ccc3ncc(N4CCNCC4)nc3c2)c1 [Compound C060, 1-(4-fluoro-3-((3-(piperazin-1-yl)quinoxalin-6-yl)oxy)phenyl)-3-(4-fluorophenyl)urea] | > 89% | > 89% | > 89% | 2000 to 5000 nM |  |  | 
12 | O=C(Nc1cccc(C(F)(F)F)c1)Nc1ccc(F)c(Oc2ccc3ncc(N4CCOCC4)nc3c2)c1 [Compound C035, 1-(4-fluoro-3-((3-morpholinoquinoxalin-6-yl)oxy)phenyl)-3-(3-(trifluoromethyl)phenyl)urea] | 70 to 89% | 70 to 89% |  | 2000 to 5000 nM | < 1000 nM |  | 
13 | O=C(Nc1cc(F)cc(Oc2ccc3ncc(N4CCOCC4)nc3c2)c1)c1ccc(Cl)c(C(F)(F)F)c1 [Compound C029, 4-chloro-N-(3-fluoro-5-((3-morpholinoquinoxalin-6-yl)oxy)phenyl)-3-(trifluoromethyl)benzamide] | 70 to 89% | 70 to 89% |  | 2000 to 5000 nM | 1000 to 5000 nM |  | 
14 | O=C(Nc1ccc(F)c(Oc2ccc3ncc(N4CCOCC4)nc3c2)c1)c1cccc(F)c1 [Compound C025, 3-fluoro-N-(4-fluoro-3-((3-morpholinoquinoxalin-6-yl)oxy)phenyl)benzamide] | 70 to 89% | 70 to 89% |  | > 5000 nM | > 5000 nM |  | 
15 | O=C(Nc1cc(F)cc(Oc2ccc3ncc(N4CCOCC4)nc3c2)c1)c1cccc(F)c1 [Compound C027, 3-fluoro-N-(3-fluoro-5-((3-morpholinoquinoxalin-6-yl)oxy)phenyl)benzamide] | 70 to 89% | 70 to 89% |  | > 5000 nM | 1000 to 5000 nM |  | 
16 | O=C(Nc1ccc(Oc2ccc3ncc(N4CCOCC4)nc3c2)cc1)Nc1ccc(Cl)c(C(F)(F)F)c1 [Compound C084, 1-(4-chloro-3-(trifluoromethyl)phenyl)-3-(4-((3-morpholinoquinoxalin-6-yl)oxy)phenyl)urea] | 70 to 89% | > 89% |  | 2000 to 5000 nM | 1000 to 5000 nM |  | 
17 | O=C(Nc1cc(F)cc(Oc2ccc3ncc(N4CCOCC4)nc3c2)c1)Nc1ccc(Cl)c(C(F)(F)F)c1 [Compound C033, 1-(4-chloro-3-(trifluoromethyl)phenyl)-3-(3-fluoro-5-((3-morpholinoquinoxalin-6-yl)oxy)phenyl)urea] | 70 to 89% | 70 to 89% |  | < 2000 nM | < 1000 nM |  | 
18 | O=C(Nc1cccc(Oc2ccc3ncc(N4CCOCC4)nc3c2)c1)Nc1cccc(C(F)(F)F)c1 [Compound C046, 1-(3-((3-morpholinoquinoxalin-6-yl)oxy)phenyl)-3-(3-(trifluoromethyl)phenyl)urea] | > 89% | 70 to 89% |  | 2000 to 5000 nM | 1000 to 5000 nM |  | 
19 | O=C(Nc1cc(F)cc(Oc2ccc3ncc(N4CCOCC4)nc3c2)c1)Nc1cccc(C(F)(F)F)c1 [Compound C032, 1-(3-fluoro-5-((3-morpholinoquinoxalin-6-yl)oxy)phenyl)-3-(3-(trifluoromethyl)phenyl)urea] | 70 to 89% | 70 to 89% |  | 2000 to 5000 nM | 1000 to 5000 nM |  | 

Source: US10590106B2, “Certain chemical entities, compositions, and methods” (NeuPharma, Inc., priority 2012, dated 2020)
